Values of other authors as cited in patent US9655910B2, “Compositions and methods for treating addiction” (BODYBIO INC., priority 2014, dated 2017).

What was measured:
[1] = molecular target: CB1 cannabinoid receptor (Rattus norvegicus, UniProt P20272)
[2] = molecular target: CB2 receptor (Homo sapiens, UniProt P34972); settings: compared with CB1
[3] = system: mice

CB1 cannabinoid receptor, sequence (P20272 whole entry): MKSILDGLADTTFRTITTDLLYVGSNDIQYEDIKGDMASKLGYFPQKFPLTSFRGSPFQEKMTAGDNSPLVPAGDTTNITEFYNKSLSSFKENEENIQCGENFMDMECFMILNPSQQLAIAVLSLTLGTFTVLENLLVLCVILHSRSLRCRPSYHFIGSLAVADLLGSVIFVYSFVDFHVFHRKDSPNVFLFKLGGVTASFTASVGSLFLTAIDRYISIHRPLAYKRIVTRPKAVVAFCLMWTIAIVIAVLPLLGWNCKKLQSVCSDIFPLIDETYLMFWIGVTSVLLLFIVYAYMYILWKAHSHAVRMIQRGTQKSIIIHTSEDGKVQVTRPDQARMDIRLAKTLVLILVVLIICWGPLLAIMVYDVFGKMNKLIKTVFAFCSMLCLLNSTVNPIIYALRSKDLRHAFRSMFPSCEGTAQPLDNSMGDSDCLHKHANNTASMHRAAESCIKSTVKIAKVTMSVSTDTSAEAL
CB2 receptor, sequence (P34972 whole entry): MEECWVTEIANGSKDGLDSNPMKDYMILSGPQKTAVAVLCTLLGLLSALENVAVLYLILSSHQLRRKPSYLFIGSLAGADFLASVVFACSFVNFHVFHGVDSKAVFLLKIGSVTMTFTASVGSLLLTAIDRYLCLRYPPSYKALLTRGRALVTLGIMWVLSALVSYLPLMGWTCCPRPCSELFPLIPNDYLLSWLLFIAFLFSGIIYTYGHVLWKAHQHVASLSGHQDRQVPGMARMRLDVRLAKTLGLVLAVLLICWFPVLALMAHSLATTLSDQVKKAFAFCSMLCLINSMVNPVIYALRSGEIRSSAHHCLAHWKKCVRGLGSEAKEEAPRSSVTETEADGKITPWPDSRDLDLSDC

CCCCCC=CCC=CCC=CCC=CCCCCOC(CO)CO [Noladin ether, 2-arachidonyl glyceryl ether]
Ki [1]: 21.2 nM
binding to the CB2 receptor [2]: only weakly
effects caused in mice [3]: sedation, hypothermia, intestinal immobility, and mild antinociception
